Data published in ChEMBL document CHEMBL3286394, “Synthesis and pharmacological characterization of new neuronal nicotinic acetylcholine receptor ligands derived from Sazetidine-A” (Bioorg Med Chem Lett, 2014).

Key:
[1] = target: Neuronal acetylcholine receptor; alpha3/beta4 (Rattus norvegicus, UniProt P04757+P12392); assay: Displacement of [3H]epibatadine from rat alpha3beta4 nAChR expressed in HEK293 cells by scintillation counting analysis; assay type: cell-based
[2] = target: Neuronal acetylcholine receptor; alpha4/beta2 (Rattus norvegicus, UniProt P09483+P12390); assay: Displacement of [3H]epibatadine from rat alpha4beta2 nAChR expressed in HEK293 cells by scintillation counting analysis; assay type: cell-based
[3] = target: Neuronal acetylcholine receptor subunit alpha-7 (Rattus norvegicus, UniProt Q05941); assay: Displacement of [3H]epibatadine from rat alpha7 nAChR expressed in HEK293 cells by scintillation counting analysis; assay type: cell-based
[4] = Displacement of [3H]epibatadine from rat forebrain nAChR expressed in HEK293 cells by scintillation counting analysis; assay type: cell-based
[5] = species on record: Rattus norvegicus; assay: Selectivity ratio of Ki for rat alpha3beta4 nAChR to Ki for rat alpha4beta2 nAChR

Sequence of Neuronal acetylcholine receptor; alpha4/beta2 (P09483 whole entry): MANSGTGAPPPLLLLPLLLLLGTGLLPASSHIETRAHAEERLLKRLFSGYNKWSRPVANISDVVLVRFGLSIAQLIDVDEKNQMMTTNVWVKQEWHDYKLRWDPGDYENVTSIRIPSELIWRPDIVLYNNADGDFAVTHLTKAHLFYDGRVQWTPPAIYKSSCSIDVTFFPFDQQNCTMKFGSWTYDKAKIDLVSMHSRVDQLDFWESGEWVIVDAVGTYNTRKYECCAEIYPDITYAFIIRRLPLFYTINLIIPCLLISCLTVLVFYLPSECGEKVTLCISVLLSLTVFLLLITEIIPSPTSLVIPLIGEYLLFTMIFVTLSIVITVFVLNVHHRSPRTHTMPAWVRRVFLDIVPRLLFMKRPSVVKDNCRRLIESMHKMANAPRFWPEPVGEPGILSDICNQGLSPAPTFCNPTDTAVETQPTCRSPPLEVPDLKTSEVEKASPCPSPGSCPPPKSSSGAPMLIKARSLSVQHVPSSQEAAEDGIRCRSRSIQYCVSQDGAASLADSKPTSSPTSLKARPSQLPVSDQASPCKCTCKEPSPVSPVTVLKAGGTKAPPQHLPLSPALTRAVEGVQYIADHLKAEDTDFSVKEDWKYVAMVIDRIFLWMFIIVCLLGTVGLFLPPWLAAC
Sequence of Neuronal acetylcholine receptor; alpha4/beta2 (P12390 whole entry): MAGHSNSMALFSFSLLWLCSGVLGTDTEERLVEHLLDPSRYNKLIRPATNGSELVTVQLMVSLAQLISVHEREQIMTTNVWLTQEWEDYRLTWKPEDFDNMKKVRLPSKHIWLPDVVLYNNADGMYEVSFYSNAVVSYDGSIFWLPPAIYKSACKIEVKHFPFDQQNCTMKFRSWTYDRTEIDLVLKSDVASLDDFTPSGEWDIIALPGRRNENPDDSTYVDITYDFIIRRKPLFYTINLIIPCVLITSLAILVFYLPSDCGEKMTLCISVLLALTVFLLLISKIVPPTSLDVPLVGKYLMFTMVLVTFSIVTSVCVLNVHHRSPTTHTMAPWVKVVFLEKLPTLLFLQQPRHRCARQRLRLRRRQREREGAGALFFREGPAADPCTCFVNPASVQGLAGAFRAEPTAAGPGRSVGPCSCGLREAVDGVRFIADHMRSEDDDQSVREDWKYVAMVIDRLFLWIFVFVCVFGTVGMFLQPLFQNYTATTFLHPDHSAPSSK
Sequence of Neuronal acetylcholine receptor subunit alpha-7 (Q05941 whole entry): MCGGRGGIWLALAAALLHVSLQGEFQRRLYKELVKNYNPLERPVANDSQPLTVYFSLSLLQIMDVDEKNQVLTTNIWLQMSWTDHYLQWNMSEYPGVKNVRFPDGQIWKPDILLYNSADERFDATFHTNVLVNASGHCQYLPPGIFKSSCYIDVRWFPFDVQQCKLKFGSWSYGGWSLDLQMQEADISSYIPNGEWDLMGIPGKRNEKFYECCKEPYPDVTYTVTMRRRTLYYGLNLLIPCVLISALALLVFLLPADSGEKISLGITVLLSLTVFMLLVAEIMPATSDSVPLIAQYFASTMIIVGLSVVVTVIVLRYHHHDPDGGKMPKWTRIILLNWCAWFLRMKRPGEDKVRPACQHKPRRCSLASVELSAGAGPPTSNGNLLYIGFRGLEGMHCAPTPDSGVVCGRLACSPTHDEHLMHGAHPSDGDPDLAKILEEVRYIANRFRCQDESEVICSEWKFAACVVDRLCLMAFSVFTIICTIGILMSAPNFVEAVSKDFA
Sequence of Neuronal acetylcholine receptor; alpha3/beta4 (P04757 whole entry): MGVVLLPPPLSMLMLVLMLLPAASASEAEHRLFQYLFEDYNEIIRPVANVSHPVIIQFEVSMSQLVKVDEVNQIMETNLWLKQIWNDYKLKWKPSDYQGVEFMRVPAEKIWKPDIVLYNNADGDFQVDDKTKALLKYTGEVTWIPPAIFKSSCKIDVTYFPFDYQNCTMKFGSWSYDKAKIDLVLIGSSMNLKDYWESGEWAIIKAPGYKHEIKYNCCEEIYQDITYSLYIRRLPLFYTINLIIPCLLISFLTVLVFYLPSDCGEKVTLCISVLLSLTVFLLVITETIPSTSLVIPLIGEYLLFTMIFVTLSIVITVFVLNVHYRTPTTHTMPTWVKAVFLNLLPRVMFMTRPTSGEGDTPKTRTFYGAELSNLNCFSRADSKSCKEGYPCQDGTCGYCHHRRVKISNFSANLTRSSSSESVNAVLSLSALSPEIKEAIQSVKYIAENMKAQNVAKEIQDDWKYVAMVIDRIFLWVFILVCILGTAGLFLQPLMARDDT
Sequence of Neuronal acetylcholine receptor; alpha3/beta4 (P12392 whole entry): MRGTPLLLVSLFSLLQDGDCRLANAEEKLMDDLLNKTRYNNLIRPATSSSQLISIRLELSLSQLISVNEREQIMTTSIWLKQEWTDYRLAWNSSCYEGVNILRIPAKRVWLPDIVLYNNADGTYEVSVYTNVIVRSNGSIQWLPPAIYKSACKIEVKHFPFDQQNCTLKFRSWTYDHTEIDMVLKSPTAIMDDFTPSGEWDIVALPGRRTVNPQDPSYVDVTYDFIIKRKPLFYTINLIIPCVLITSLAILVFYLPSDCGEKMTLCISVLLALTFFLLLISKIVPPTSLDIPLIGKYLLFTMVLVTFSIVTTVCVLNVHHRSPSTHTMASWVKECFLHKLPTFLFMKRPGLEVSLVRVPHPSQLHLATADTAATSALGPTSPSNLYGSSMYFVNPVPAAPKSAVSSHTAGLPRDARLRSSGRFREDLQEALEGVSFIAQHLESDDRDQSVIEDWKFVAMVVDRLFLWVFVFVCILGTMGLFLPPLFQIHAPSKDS

For `CCCCC#Cc1cncc(OC[C@@H]2CCN2)c1`, the Ki [1] was 1700 nM, the Ki [2] was 0.1 nM and the Ki [3] was 1900 nM. The Ki [4] was 0.29 nM and the Ratio Ki [5] was 17000.
In the case of `c1ncc(-c2nnn3c2CCCC3)cc1OC[C@@H]1CCN1`, the Ki [1] is reported as 64000 nM, the Ki [2] is reported as 10 nM and the Ki [3] is reported as 51000 nM. It also gave a Ki [4] of 48 nM and a Ratio Ki [5] of 6200.
For `[N-]=[N+]=NCCCCC#Cc1cncc(OC[C@@H]2CCN2)c1`, the Ki [1] was 3400 nM, the Ki [2] was 0.086 nM and the Ki [3] was 2700 nM. For the same molecule, the Ki [4] was 0.36 nM and the Ratio Ki [5] was 40000.
Work on `CCCCC#Cc1cncc(OC[C@H]2CCN2)c1` yielded a Ki [1] of 5200 nM, a Ki [2] of 0.5 nM and a Ki [3] of 13000 nM. For the same molecule, the Ki [4] was 0.92 nM and the Ratio Ki [5] was 10000.
Work on `CCCCC#Cc1cncc(OC[C@@H]2CCCN2)c1` yielded a Ki [1] of 18000 nM, a Ki [2] of 1.2 nM and a Ki [3] of 35000 nM. The Ki [4] was 5.8 nM and the Ratio Ki [5] was 15000.
In the case of `OCCCCc1cn(-c2cncc(OC[C@@H]3CCN3)c2)nn1`, the Ki [1] is reported as 77000 nM, the Ki [2] is reported as 1.3 nM and the Ki [3] is reported as 100000 nM. For the same molecule, the Ki [4] was 8 nM and the Ratio Ki [5] was 59000.
Work on `CCCCC#Cc1cncc(OC[C@H]2CCCN2)c1` yielded a Ki [1] of 12000 nM, a Ki [2] of 0.49 nM and a Ki [3] of 9100 nM. The Ki [4] was 7.7 nM and the Ratio Ki [5] was 24000.
